The assay addresses T1, MTP (Rattus norvegicus, UniProt D4A1W8).
T1 construct: endogenous in cells; host or cells: rat primary hepatocytes (male Sprague-Dawley), cell lysate
T1 sequence (D4A1W8 22-896): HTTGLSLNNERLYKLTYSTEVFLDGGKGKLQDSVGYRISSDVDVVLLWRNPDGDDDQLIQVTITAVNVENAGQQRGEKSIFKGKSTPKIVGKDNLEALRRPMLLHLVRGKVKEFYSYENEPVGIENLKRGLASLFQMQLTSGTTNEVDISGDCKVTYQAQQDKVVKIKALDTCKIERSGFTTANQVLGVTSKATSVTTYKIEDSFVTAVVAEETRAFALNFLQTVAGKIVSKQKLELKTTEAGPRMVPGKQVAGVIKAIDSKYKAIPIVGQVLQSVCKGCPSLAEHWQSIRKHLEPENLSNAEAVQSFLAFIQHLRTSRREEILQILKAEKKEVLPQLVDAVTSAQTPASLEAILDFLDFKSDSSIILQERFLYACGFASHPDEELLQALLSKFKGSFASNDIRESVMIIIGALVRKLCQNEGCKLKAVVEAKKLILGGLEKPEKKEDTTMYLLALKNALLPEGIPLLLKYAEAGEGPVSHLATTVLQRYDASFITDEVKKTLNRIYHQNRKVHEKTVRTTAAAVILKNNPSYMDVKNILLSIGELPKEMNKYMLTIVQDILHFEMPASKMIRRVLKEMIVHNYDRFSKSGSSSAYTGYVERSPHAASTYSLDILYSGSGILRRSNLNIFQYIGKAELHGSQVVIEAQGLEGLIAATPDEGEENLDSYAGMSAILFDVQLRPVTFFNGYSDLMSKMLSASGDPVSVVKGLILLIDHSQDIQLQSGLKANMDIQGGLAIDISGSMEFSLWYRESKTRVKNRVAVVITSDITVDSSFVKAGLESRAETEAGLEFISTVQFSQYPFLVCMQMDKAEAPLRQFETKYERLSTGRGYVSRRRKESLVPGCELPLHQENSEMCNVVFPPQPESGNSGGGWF
T1 sequence (P04785 20-509 partner): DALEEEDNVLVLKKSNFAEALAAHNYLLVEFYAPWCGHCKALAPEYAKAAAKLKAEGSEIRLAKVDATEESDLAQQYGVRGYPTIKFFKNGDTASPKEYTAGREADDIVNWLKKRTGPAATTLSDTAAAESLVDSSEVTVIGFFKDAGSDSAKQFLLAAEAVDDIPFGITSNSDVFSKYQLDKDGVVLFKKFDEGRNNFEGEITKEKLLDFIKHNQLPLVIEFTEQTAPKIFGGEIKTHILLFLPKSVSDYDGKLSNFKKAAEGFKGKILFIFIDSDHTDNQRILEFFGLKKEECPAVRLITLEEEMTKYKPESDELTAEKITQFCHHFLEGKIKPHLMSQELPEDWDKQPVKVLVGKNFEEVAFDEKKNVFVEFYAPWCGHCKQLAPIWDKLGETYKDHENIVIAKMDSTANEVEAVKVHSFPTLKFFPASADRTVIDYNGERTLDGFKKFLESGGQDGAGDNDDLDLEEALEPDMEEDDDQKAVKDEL
Put plainly: MTP activity in lysates of fatty acid-pretreated rat primary hepatocytes. The assay is classed as biochemical. The note with it: hepatocytes pre-treated 6 hr with BSA, OA or EPA. Here is the method: Three methods were used to assess possible effects of Ω-3 fatty acids on cellular MTP function. First, rat primary hepatocytes were incubated with BSA, OA, or EPA, and then MTP activity in cell lysates was measured using a fluorescent assay (Roar Biomedical, New York, NY). Second, to determine if lipid classes synthesized in the presence of OA or Ω-3 fatty acid are equivalent substrates for MTP, primary rat hepatocytes or HepG2 cells were incubated with tritiated OA or EPA, total cellular lipids were extracted into isopropanol, and biosynthetically labeled cholesteryl ester, triglyceride, and phospholipids were separated by preparative thin layer chromatography. […] Transfer of the labeled lipids to acceptor vesicles in the presence of 50 μg of purified bovine MTP was measured as described in Jamil, H. et al (1995) J Biol Chem 270(12), 6549-54.
First, it was necessary to test the possibility that Ω-3 fatty acids stimulate apob degradation by impeding MTP-dependent early lipidation, thereby targeting apoB to proteasomes. Rat primary hepatocytes were pre-treated for 6 hr with BSA, OA, or EPA, and then the MTP activity in lysates of these cells was assessed using artificial donor and acceptor vesicles, with [^14C]triolein as the MTP substrate, as described in Jamil, H. et al. (1995) J Biol Chem 270(12), 6549-54.

Consider one compound from patent publication US20030170643A1, “Regulation of apoB treatment and drug screening for cardiovascular and metabolic disorders or syndromes” (priority 1999, published 2003).

On to `CCCCCCCC/C=C\CCCCCCCC(=O)O` [OA, oleic acid], for which the “MTP-mediated transfer of labeled triolein in cell lysates” value is given as “No difference”.
